We go through two compounds from patent US9452157B2, “Pharmaceutical compositions comprising rifaximin and amino acids, preparation methods and use thereof” (ALFA WASSERMANN SPA, priority 2012, dated 2016).

The format of series [1] is physicochemical. The protocol: A rifaximin amount corresponding to 200 mg was dissolved in 10 ml of a solution formed by ethanol/water 1:4 (v/v), left for two days under stirring at room temperature.
Rifaximin solubility was determined by wavelength spectrophotometry at wavelength 276 nm with a rifaximin calibration curve.

For series [2] the following is noted: WO 2005/044823; cited from earlier work.

SMILES strings stand for the structures.

Regarding `CO[C@H]1/C=C/O[C@@]2(C)Oc3c(C)c(O)c4c(O)c(c5c(nc6cc(C)ccn65)c4c3C2=O)NC(=O)/C(C)=C\C=C\[C@H](C)[C@H](O)[C@@H](C)[C@@H](O)[C@@H](C)[C@H](OC(C)=O)[C@@H]1C` [Rifaximin], in series [1], the Rifaximin solubility was 48 µg/mL and the solubility of rifaximin came to 48 µg/mL.

Consider `CO[C@H]1/C=C/O[C@@]2(C)Oc3c(C)c(O)c4c(O)c(c5c(nc6cc(C)ccn65)c4c3C2=O)NC(=O)/C(C)=C\C=C\[C@H](C)[C@H](O)[C@@H](C)[C@@H](O)[C@@H](C)[C@H](OC(C)=O)[C@@H]1C` [rifaximin polymorph α], for which the water solubility entry in series [2] was “substantially insoluble”.
